According to the NIST ThermoML archive (doi:10.1016/j.jct.2008.07.012):
Numbers after ± are expanded uncertainties.

Experiment: molar enthalpy of vaporization or sublimation
Conditions: 298.15 K; Crystal; Calvet Calorimetry

| Compound | molar enthalpy |
| --- | --- |
| O=[N+]([O-])c1ccccc1Cl [1-chloro-2-nitrobenzene] | 19.3 ± 0.717 kcal/mol |
| O=[N+]([O-])c1cccc(Cl)c1 [1-chloro-3-nitrobenzene] | 19.7 ± 0.717 kcal/mol |
| O=[N+]([O-])c1ccc(Cl)cc1 [1-chloro-4-nitrobenzene] | 18.2 ± 1 kcal/mol |
